Reference: patent US20240150365A1 (Hotspot Therapeutics, Inc., priority 2022, published 2024)
Like-named read-outs stand apart in the source and are kept apart here.

Experiments:
[1] = target: T1, MALT1 (Homo sapiens, UniProt Q9UDY8); assay: MALT-1 Fluorogenic Peptide Cleavage Assay (MALT1 inhibition assay); format: biochemical; settings: Avi-tagged FL MALT-1, Ac-LRSR-AMC peptide substrate, 30 min pre-incubation, 90 min reaction
T1 construct: Avi-tagged FL MALT-1 (Pharmaron, stored at −70° C.); Avi tag
T1 sequence (Q9UDY8 1-824): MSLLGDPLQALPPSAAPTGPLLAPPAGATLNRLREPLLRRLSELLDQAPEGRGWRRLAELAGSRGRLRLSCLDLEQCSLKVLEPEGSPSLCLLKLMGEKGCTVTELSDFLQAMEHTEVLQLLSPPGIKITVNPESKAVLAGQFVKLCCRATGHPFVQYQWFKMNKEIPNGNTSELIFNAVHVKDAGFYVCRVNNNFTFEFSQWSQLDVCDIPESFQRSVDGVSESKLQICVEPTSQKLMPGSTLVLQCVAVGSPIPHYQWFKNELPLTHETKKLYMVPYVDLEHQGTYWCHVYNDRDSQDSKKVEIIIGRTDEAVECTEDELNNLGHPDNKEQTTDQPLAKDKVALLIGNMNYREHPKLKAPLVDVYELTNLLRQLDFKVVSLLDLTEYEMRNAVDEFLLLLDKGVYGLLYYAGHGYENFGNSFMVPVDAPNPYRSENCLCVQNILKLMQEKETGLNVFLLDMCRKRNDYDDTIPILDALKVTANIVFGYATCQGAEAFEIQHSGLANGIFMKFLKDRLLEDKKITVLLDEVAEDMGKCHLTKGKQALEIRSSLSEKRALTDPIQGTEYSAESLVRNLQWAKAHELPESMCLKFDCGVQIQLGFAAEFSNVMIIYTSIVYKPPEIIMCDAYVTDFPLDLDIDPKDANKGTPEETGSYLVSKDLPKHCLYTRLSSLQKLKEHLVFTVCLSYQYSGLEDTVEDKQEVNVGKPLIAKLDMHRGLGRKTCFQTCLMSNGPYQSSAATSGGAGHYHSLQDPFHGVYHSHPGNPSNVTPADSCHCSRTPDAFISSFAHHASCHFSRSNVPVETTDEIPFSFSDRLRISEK
How it was run: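 Avi-tagged full-length MALT1 pre-incubated 30 min with compound (2% DMSO final), then cleavage of Ac-LRSR-AMC followed over 90 min at room temperature. AMC fluorescence read at 342/441 nm; % inhibition fitted to sigmoidal curves for IC50.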

[2] = test system: NF-kB; assay: NF-kB reporter assay in Jurkat cells stimulated with aCD3/aCD28/PMA; format: cell-based; settings: Homo sapiens, Jurkat, read-out: NF-kB Reporter Assay IC50
How it was run: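 Jurkat cells (25,000/well, serum-free RPMI 1640) preincubated 1 hr at 37° C with serially diluted compound, then stimulated with aCD3/aCD28/PMA (final 5 μg/mL, 5 μg/mL, 0.03 μg/mL) for 4 hr. Reporter luminescence read with One-Glo; IC50 derived.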

[3] = Jurkat cells, 1 hr compound incubation, aCD3/aCD28/PMA stimulation 4 hr, One-Glo readout

SMILES | IC50 [1] | IC50 [2, 3] | IC50 [2]
COc1ccc2cnn(C)c2c1N(C)S(=O)(=O)c1ccc(-c2cc(C(F)(F)F)n[nH]2)nc1 [Example I-48, N-(6-Methoxy-1-Methyl-1H-Indazol-7-yl)-N-Methyl-6-(3-(Trifluoromethyl)-1H-Pyrazol-5-yl)Pyridine-3-Sulfonamide] | < 400 nM | < 400 nM | 
COc1ccc2cnn(C)c2c1NS(=O)(=O)c1ccc(-c2nc(C)n[nH]2)nc1 [Example I-166, N-(6-Methoxy-1-Methyl-1H-Indazol-7-yl)-6-(3-Methyl-1H-1,2,4-Triazol-5-yl)Pyridine-3-Sulfonamide] | > 2500 nM | > 2500 nM | 
Cn1ncc2cccc(NS(=O)(=O)c3ccc(-n4cc5c(n4)CCOC5)nc3)c21 [Example I-247, N-(1-methylindazol-7-yl)-6-{4H,6H,7H-pyrano[4,3-c]pyrazol-2-yl}pyridine-3-sulfonamide] | > 2500 nM | < 400 nM | 
Cn1ncc2cccc(NS(=O)(=O)c3ccc(-c4cnc(C(C)(C)O)s4)nc3)c21 [Example I-267, 6-[2-(2-hydroxypropan-2-yl)-1,3-thiazol-5-yl]-N-(1-methylindazol-7-yl)pyridine-3-sulfonamide] | > 2500 nM | 400 to 1000 nM | 
COc1ccc2cnn(C)c2c1NS(=O)(=O)c1ccc(-c2cc(C(F)(F)F)n[nH]2)nc1 [Example I-22, N-(6-Methoxy-1-Methylindazol-7-yl)-6-[5-(Trifluoromethyl)-2H-Pyrazol-3-yl]pyridine-3-Sulfonamide] | < 400 nM | < 400 nM | 
Cc1cnn(-c2ccc(S(=O)(=O)Nc3cccc4cnn(C)c34)cn2)c1C [Example I-57, 6-(4,5-Dimethylpyrazol-1-yl)-N-(1-Methylindazol-7-yl)Pyridine-3-Sulfonamide] | > 2500 nM | < 400 nM | 
Cn1ncc2cccc(NS(=O)(=O)c3ccc(-n4nc(C(F)(F)F)c5c4CCOC5)nc3)c21 [Example I-298] | > 2500 nM | < 400 nM | 
COc1ccc2cnn(C)c2c1NS(=O)(=O)c1ccc(-c2ccn(C)n2)nc1 [Example I-19, N-(6-Methoxy-1-Methylindazol-7-yl)-6-(1-Methylpyrazol-3-yl)Pyridine-3-Sulfonamide] | > 2500 nM | < 400 nM | 
CCc1ccc2cn(C)nc2c1NS(=O)(=O)c1ccc(-n2cc(C(F)(F)F)cn2)nc1 [Example I-26, N-(6-Ethyl-2-Methylindazol-7-yl)-6-[4-(Trifluoromethyl)Pyrazol-1-yl]pyridine-3-Sulfonamide] | < 400 nM | > 2500 nM | 
Cn1ccc2cccc(NS(=O)(=O)c3ccc(-c4cc(C(F)(F)F)n[nH]4)nc3)c21 [Example I-143, N-(1-Methyl-1H-Indol-7-yl)-6-(5-(Trifluoromethyl)-1H-Pyrazol-3-yl)Pyridine-3-Sulfonamide] | < 400 nM | < 400 nM | 
Cn1c(=O)c2cccc(N)c2n1S(=O)(=O)c1ccc(-n2cc(C(F)(F)F)cn2)nc1 [Example I-179, 7-Amino-2-Methyl-1-((6-(4-(Trifluoromethyl)-1H-Pyrazol-1-yl)Pyridin-3-yl)Sulfonyl)-1,2-Dihydro-3H-Indazol-3-One] | > 2500 nM | > 2500 nM | 
Cc1nn(C2COC2)cc1-c1ccc(S(=O)(=O)Nc2cccc3cnn(C)c23)cn1 [Example I-275] | > 2500 nM | 400 to 1000 nM | 
COCCn1ncc2cccc(NS(=O)(=O)c3ccc(-n4nccc4C4CC4)nc3)c21 [Example I-216, 6-(5-Cyclopropyl-1H-Pyrazol-1-yl)-N-(1-(2-Methoxyethyl)-1H-Indazol-7-yl)Pyridine-3-Sulfonamide] | > 2500 nM | > 2500 nM | 
Cn1ncc2cccc(NS(=O)(=O)c3ccc(-c4cnn5c4CCC5)nc3)c21 [Example I-269, 6-(5,6-dihydro-4H-pyrrolo[1,2-b]pyrazol-3-yl)-N-(1-methyl-1H-indazol-7-yl)pyridine-3-sulfonamide] | > 2500 nM | < 400 nM | 
CC(C)c1ncc(-c2ccc(S(=O)(=O)Nc3cccc4cnn(C)c34)cn2)s1 [Example I-266, 6-(2-isopropyl-1,3-thiazol-5-yl)-N-(1-methylindazol-7-yl)pyridine-3-sulfonamide] | > 2500 nM |  | < 400 nM
COC1(c2cnn(-c3ccc(S(=O)(=O)Nc4cccc5cnn(C)c45)cn3)c2)CC1 [Example I-251, 6-(4-(1-methoxycyclopropyl)-1H-pyrazol-1-yl)-N-(1-methyl-1H-indazol-7-yl)pyridine-3-sulfonamide] | > 2500 nM | < 400 nM | 
Cn1cc(-c2ccc(S(=O)(=O)Nc3cccc4cnn(C)c34)cn2)ccc1=O [Example I-112, 1′-Methyl-N-(1-Methyl-1H-Indazol-7-yl)-6′-Oxo-1′,6′-Dihydro-[2,3′-Bipyridine]-5-Sulfonamide] | > 2500 nM | > 2500 nM | 
Cn1ncc2cccc(NS(=O)(=O)c3ccc(-c4cncc(C#N)c4)nc3)c21 [Example I-130, 5′-cyano-N-(1-methylindazol-7-yl)-[2,3′-bipyridine]-5-sulfonamide] | > 2500 nM | 1000 to 2500 nM | 
Cc1cc(S(=O)(=O)Nc2cccc3cnn(C)c23)cnc1-n1cc(C(F)(F)F)cn1 [Example I-65, 5-Methyl-N-(1-Methyl-1H-Indazol-7-yl)-6-(4-(Trifluoromethyl)-1H-Pyrazol-1-yl)Pyridine-3-Sulfonamide] | 1000 to 2500 nM | < 400 nM | 
Cc1cn(-c2ccc(S(=O)(=O)Nc3cccc4cnn(C)c34)cn2)nc1C [Example I-58, 6-(3,4-Dimethylpyrazol-1-yl)-N-(1-Methylindazol-7-yl)Pyridine-3-Sulfonamide] | 1000 to 2500 nM | < 400 nM | 
COc1ccc2c(F)nn(C)c2c1NS(=O)(=O)c1ccc(-n2cc(C(F)(F)F)cn2)nc1 [Example I-273, N-(3-fluoro-6-methoxy-1-methyl-1H-indazol-7-yl)-6-(4-(trifluoromethyl)-1H-pyrazol-1-yl)pyridine-3-sulfonamide] | < 400 nM | 400 to 1000 nM | 
Cc1cc(NS(=O)(=O)c2ccc(-n3cc(C(F)(F)F)cn3)nc2)c2c(cnn2C)c1 [Example I-71, N-(1,5-Dimethyl-1H-Indazol-7-yl)-6-(4-(Trifluoromethyl)-1H-Pyrazol-1-yl) Pyridine-3-Sulfonamide] | 1000 to 2500 nM | < 400 nM | 
COc1ccc2cnn(C)c2c1NS(=O)(=O)c1ccc(-n2nnc(C)n2)nc1 [Example I-144, N-(6-Methoxy-1-Methyl-1H-Indazol-7-yl)-6-(5-Methyl-2H-Tetrazol-2-yl)Pyridine-3-Sulfonamide] | > 2500 nM | > 2500 nM | 
[2H]C([2H])([2H])n1ncc2ccc(OC)c(NS(=O)(=O)c3ccc(-n4cc(C)cn4)nc3)c21 [Example I-206, N-(6-Methoxy-1-(Methyl-D3)-1H-Indazol-7-yl)-6-(4-Methyl-1H-Pyrazol-1-yl)Pyridine-3-Sulfonamide] | < 400 nM | < 400 nM | 
C=Cn1cc2cccc(NS(=O)(=O)c3ccc(-n4cc(C(F)(F)F)cn4)nc3)c2n1 [Example I-297] | > 2500 nM | > 2500 nM | 
[2H]C([2H])([2H])Oc1ccc2cnn(C)c2c1NS(=O)(=O)c1ccc(-n2cc(Cl)cn2)nc1 [Example I-213, 6-(4-Chloro-1H-Pyrazol-1-yl)-N-(6-(Methoxy-D3)-1-Methyl-1H-Indazol-7-yl)Pyridine-3-Sulfonamide] | < 400 nM | < 400 nM | 
Cn1ncc2cccc(NS(=O)(=O)c3ccc(-n4ccc(C(F)F)n4)nc3)c21 [Example I-51, 6-[3-(Difluoromethyl)Pyrazol-1-Yl]-N-(1-Methylindazol-7-yl)Pyridine-3-Sulfonamide] | 1000 to 2500 nM | < 400 nM | 
COc1ccc2cnn(C)c2c1NS(=O)(=O)c1ccc(-c2cnc3n2CCOC3)nc1 [Example I-312, 6-(5,6-dihydro-8H-imidazo[2,1-c][1,4]oxazin-3-yl)-N-(6-methoxy-1-methyl-1H-indazol-7-yl)pyridine-3-sulfonamide] | 1000 to 2500 nM | 400 to 1000 nM | 
Cn1ncc2cccc(NS(=O)(=O)c3ccc(-c4c[nH]nc4C(F)(F)F)nc3)c21 [Example I-85, N-(1-Methyl-1H-Indazol-7-yl)-6-(3-(Trifluoromethyl)-1H-Pyrazol-4-yl)Pyridine-3-Sulfonamide] | > 2500 nM | < 400 nM | 
